The values below come from patent US20130344501A1, “METHODS FOR PRODUCING THREE-DIMENSIONAL PHYSIOLOGICALLY RELEVANT IMMUNE TISSUE SYSTEMS UNDER LOW FLUID SHEAR CONDITIONS” (priority 2010, published 2013).

Data set [1] deals with U937 cells. Put plainly: Cell viability of U937 monocytes cultured alone (with or without microcarrier beads) after exposure to 3-oxo-C12 HSL, flow cytometry. The format is cell-based, human. The note with it: for Percentage viability, U937: U937 cells exposed alone, mean ± SD, N=3; for Percentage viability, U937 / Percentage viability, U937 + beads: 20 hour exposure; for Percentage viability, U937 + beads: U937 in the presence of microcarrier beads. As for the experimental part: Assessment of live-, apoptotic-, and necrotic cell populations was performed with the annexin V-propidium iodide (PI) kit for flow cytometry analysis (ImmunoSource) according to the manufacturer's instructions.
Stained cell suspensions were analyzed with an EPICS XL flow cytometer (Beckman-Coulter) or a Cytomics FC 500 system (Beckman-Coulter), equipped with an argon laser and filters for adequate excitation of the chosen fluorophores. Forward scatter, side scatter, FITC-, PI and PE-Cy5 emissions were measured and a total of 10,000 cells were recorded for each sample. The respective cell populations were delimited to eliminate background signals originating from cell debris. To assess background fluorescent signals from the tested cell populations, non-stained samples were included.
After 72 hours of co-cultivation, aggregates containing 2×10^6 cells were seeded into 6-well plates containing fresh medium (5 ml total volume). Subsequently, aggregates were spiked with 5, 10 or 100 μM 3-oxo-C12 HSL (Sigma-Aldrich) (starting from a 20 mM stock solution in DMSO, stored at −20° C.). Equal volumes of DMSO, containing the respective amounts of 3-oxo-C12 HSL, were added to each well (25 μl) and a solvent control (25 μl DMSO) was included in each experiment. Six-well plates were placed at 37° C. in a 5% CO2 environment and incubated for 20 hours. For exposure assays of monocytes to 3-oxo-C12 HSL, 2×10^6 U937 cells/well were transferred in 6-well plates. To assess the influence of 3-oxo-C12 HSL on monocytes cultured on microcarrier beads, collagen I-coated beads were added to the cells at the same concentration as for seeding three-dimensional cultures (1 bead per 2500 cells). Subsequently, monocyte cultures (with or without microcarrier beads) were spiked with 3-oxo-C12 HSL (see above). A solvent control was included. […] Cell viability was assayed with trypan blue (0.4%) (Sigma) and/or with the annexin V-PI kit (ImmunoSource) (see above). […] FIG. 9B are examples of the three-dimensional A549-U937 co-culture model exposed to 100 μM 3-oxo-C12 HSL and to the solvent control DMSO. The presented cell population is gated for CD45 positive cells and thus only includes monocytes/macrophages. For FIGS. 9A-B, “I” represents the percentage of dead cells, while “H” is the viable cell population. Consequently, cell viability was further assessed based on the shift in forward scatter signal (see Table 1).

In data set [2] the test system is U937 cultures. The format is in vitro ADME, human. Conditions: compared to three-dimensional A549 and A549-U937 cultures. As for the experimental part:
(§1) Following exposure of three-dimensional cultures and monocytes to 3-oxo-C12 HSL, cell-free samples were taken and stored at −20° C. at indicated time points. The remaining 3-oxo-C12 HSL concentration was assessed as previously described (Crabbé et al., 2008) using the indicator strain E. coli harboring the reporter plasmid pUCP22NotI-PlasB::gfp(ASV)Plac::lasR (Hentzer et al., 2002). A 3-oxo-C12 HSL standard series was included ranging from 1.63 to 100 μM. Culture medium containing microcarrier beads was used as a control to normalize for bioadsorption.

The test system of data set [3] is three-dimensional A549 and three-dimensional A549-U937 cultures. The data set is classed as in vitro ADME, human. Conditions: original concentration 100 μM. As for the experimental part: as §1
Data set [4] has as its system ICAM-1 expression of A549 cells (derived from the three-dimensional A549-U937 co-culture). Put plainly: ICAM-1 expression of A549 cells from the three-dimensional A549-U937 co-culture exposed to 3-oxo-C12 HSL, flow cytometry. The data set is classed as cell-based, human. From the text: Mouse anti-human CD45 (Invitrogen) and ICAM-1 (Invitrogen) conjugated with phycoerythrin (PE)-Cy5 and FITC respectively were used for flow cytometry staining. Sample preparation and fluorescent staining of cells. Cells were rinsed 2 times with pre-warmed HBSS (Invitrogen), detached from microcarrier beads/culture flasks with 0.25% trypsin-EDTA (Invitrogen) and counted using a hemocytometer. For inclusion of cells detached from the microcarrier beads (three-dimensional A549 and three-dimensional A549-U937 co-cultures) in the frame of QS exposure studies (see below), whole cultures (both aggregates and bulk liquid) were centrifuged at 1200 rpm for 6 min for each washing step. […]
Stained cell suspensions were analyzed with an EPICS XL flow cytometer (Beckman-Coulter) or a Cytomics FC 500 system (Beckman-Coulter), equipped with an argon laser and filters for adequate excitation of the chosen fluorophores. Forward scatter, side scatter, FITC-, PI and PE-Cy5 emissions were measured and a total of 10,000 cells were recorded for each sample. […]
After 72 hours of co-cultivation, aggregates containing 2×10^6 cells were seeded into 6-well plates containing fresh medium (5 ml total volume). […] Consequently, cell viability was further assessed based on the shift in forward scatter signal (see Table 1).
On the technique in general: In flow cytometry, cells or beads pass a laser one at a time.

`CCCCCCCCCC(=O)CC(=O)N[C@H]1CCOC1=O` [3-oxo-C12 HSL, N-(3-oxododecanoyl)-Lhomoserine lactone]: the “loss of viability of pure cultures of U937 cells” value in data set [1] (100 μM, after 2 hours of exposure) was “started to show significant loss of viability”. In data set [1] (100 μM, after 5 hours of exposure), the “viability of pure cultures of U937 cells” value is 50%. The figures for the “Percentage viability, U937” value in data set [1] (5 μM) and in data set [1] (10 μM) were 82.8 ± 0.2% and 75.6 ± 0.6%, respectively. For the same molecule, the “Percentage viability, U937 + beads” value turned out to be 89.1 ± 1.4% in data set [1] (5 μM), 90.9 ± 0.4% in data set [1] (10 μM) and 5.3 ± 0.4% in data set [1] (100 μM). In data set [1] (lower concentrations, 5 μM and 10 μM), the “monocyte cell viability” value is recorded as “did not induce significant differences”. Moreover, the “change of 3-oxo-C12 HSL concentration over time” value in data set [2] is recorded as “minimal differences in 3-oxo-C12 HSL concentration over time”. Moreover, the “remaining fraction of the original 3-oxo-C12 HSL concentration” value in data set [3] (after 2 hours of exposure) amounted to 30%. Moreover, in data set [3] (after 20 hours of exposure), the “residual 3-oxo-C12 HSL” value is “no residual 3-oxo-C12 HSL could be detected”. In data set [4] (100 μM, 20 hours, p<0.01, mean ± SD, N=3), the “ICAM-1 expression increase compared to the solvent control” value worked out at 1.66±0.11 fold. The “ICAM-1 expression” value in data set [4] (lower concentrations of the QS molecule) is on record as “did not affect ICAM-1 expression”.
